Literature values, collected in patent US20060003004A1 (Collegium Pharmaceutical, Inc., priority 2002, published 2006).
Like-named read-outs stand apart in the source and are kept apart here. Marks after values point to notes of the source that are not given here.

Tests used:
[1] = 40-120 mg/day, 1032 patients
[2] = system: histaminergic receptors
[3] = target: uptake of dopamine (Homo sapiens, UniProt Q01959)
[4] = system: muscarinic receptors
[5] = system: beta adrenergic receptors
[6] = system: alpha adrenergic receptors
[7] = not given; remark: listed apart in the source
[8] = not given; remark: listed apart in the source
[9] = system: dopaminergic receptors
[10] = intravenous, 10 patients
[11] = system: beta adrenoceptors in rat cortex; conditions: after chronic administration
[12] = for Participants who failed the dose escalation: escalation to 200 mg daily
[13] = Phase 2 and Phase 3 depression studies
[14] = n=1,033
[15] = 100 mg/day twice daily, N = 1871
[16] = 200 mg/day twice daily, N = 865

uptake of dopamine, sequence (Q01959 whole entry): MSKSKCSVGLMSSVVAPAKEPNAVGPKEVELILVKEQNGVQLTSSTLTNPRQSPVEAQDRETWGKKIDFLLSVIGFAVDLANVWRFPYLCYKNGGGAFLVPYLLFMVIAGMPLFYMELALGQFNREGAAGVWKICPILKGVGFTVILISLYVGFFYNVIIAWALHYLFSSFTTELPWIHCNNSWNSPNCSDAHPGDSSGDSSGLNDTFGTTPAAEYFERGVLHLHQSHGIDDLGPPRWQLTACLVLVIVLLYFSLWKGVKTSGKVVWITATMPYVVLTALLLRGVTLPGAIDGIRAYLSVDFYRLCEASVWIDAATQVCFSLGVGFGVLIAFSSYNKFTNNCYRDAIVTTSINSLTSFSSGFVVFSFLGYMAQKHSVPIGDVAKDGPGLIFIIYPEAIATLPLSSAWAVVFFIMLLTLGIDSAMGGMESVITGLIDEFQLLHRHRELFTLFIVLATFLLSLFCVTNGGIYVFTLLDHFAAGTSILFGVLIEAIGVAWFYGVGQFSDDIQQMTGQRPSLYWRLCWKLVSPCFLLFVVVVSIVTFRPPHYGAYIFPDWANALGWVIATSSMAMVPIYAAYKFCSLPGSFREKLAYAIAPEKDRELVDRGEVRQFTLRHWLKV

CNCC[C@H](Oc1cccc2ccccc12)c1cccs1 [duloxetine]
Rate of adverse events nausea, dry mouth, fatigue, dizziness, constipation, somnolence, decreased appetite, and sweating [1]: more than 5%

CCN(CC)C(=O)C1(c2ccccc2)CC1CN (stereo not shown) [milnacipran, Milnacipran]
Affinity for histaminergic receptors [2]: no affinity | Effect on uptake of dopamine [3]: does not affect | Frequency of Adverse Experiences: Abdominal Pain (50 mg/day twice daily, N = 426): 6.1% | Frequency of Adverse Experiences: Agitation (50 mg/day twice daily, N = 426): 1.6% | Frequency of Adverse Experiences: Anxiety (50 mg/day twice daily, N = 426): 2.8% | Frequency of Adverse Experiences: Dry mouth (50 mg/day twice daily, N = 426): 9.4% | Frequency of Adverse Experiences: Dyspepsia (50 mg/day twice daily, N = 426): 3.5% | Frequency of Adverse Experiences: Dysuria (50 mg/day twice daily, N = 426): 1.4% | Frequency of Adverse Experiences: Fatigue (50 mg/day twice daily, N = 426): 2.8% | Frequency of Adverse Experiences: Headache (50 mg/day twice daily, N = 426): 14.6% | Frequency of Adverse Experiences: Hot flushes (50 mg/day twice daily, N = 426): 1.6% | Frequency of Adverse Experiences: Increased Sweating (50 mg/day twice daily, N = 426): 14.0% | Frequency of Adverse Experiences: Insomnia (50 mg/day twice daily, N = 426): 9.2% | Frequency of Adverse Experiences: Nausea (50 mg/day twice daily, N = 426): 12.7% | Frequency of Adverse Experiences: Nervousness (50 mg/day twice daily, N = 426): 4.2% | Frequency of Adverse Experiences: Palpitations (50 mg/day twice daily, N = 426): 2.3% | Frequency of Adverse Experiences: Somnolence (50 mg/day twice daily, N = 426): 5.4% | Frequency of Adverse Experiences: Tremor (50 mg/day twice daily, N = 426): 0.9% | Frequency of Adverse Experiences: Vertigo (50 mg/day twice daily, N = 426): 1.6% | Frequency of Adverse Experiences: Vomiting (50 mg/day twice daily, N = 426): 3.8% | Frequency of Adverse Experiences: Agitation [15]: 3.3% | Frequency of Adverse Experiences: Anxiety [15]: 4.1% | Frequency of Adverse Experiences: Dry mouth [15]: 7.9% | Frequency of Adverse Experiences: Dyspepsia [15]: 2.1% | Frequency of Adverse Experiences: Dysuria [15]: 2.1* % | Frequency of Adverse Experiences: Fatigue [15]: 2.5% | Frequency of Adverse Experiences: Headache [15]: 8.4% | Frequency of Adverse Experiences: Hot flushes [15]: 3.0% | Frequency of Adverse Experiences: Increased Sweating [15]: 4.3* % | Frequency of Adverse Experiences: Insomnia [15]: 6.1% | Frequency of Adverse Experiences: Nausea [15]: 11.2% | Frequency of Adverse Experiences: Nervousness [15]: 2.0% | Frequency of Adverse Experiences: Palpitations [15]: 2.7% | Frequency of Adverse Experiences: Somnolence [15]: 2.3% | Frequency of Adverse Experiences: Tremor [15]: 2.5% | Frequency of Adverse Experiences: Vertigo [15]: 5.0% | Frequency of Adverse Experiences: Vomiting [15]: 3.9% | Frequency of Adverse Experiences: Abdominal Pain [16]: 7.6% | Frequency of Adverse Experiences: Agitation [16]: 2.9% | Frequency of Adverse Experiences: Anxiety [16]: 5.1% | Frequency of Adverse Experiences: Dry mouth [16]: 9.0% | Frequency of Adverse Experiences: Dyspepsia [16]: 2.2% | Frequency of Adverse Experiences: Dysuria [16]: 3.7* % | Frequency of Adverse Experiences: Fatigue [16]: 4.4% | Frequency of Adverse Experiences: Headache [16]: 13.5% | Frequency of Adverse Experiences: Hot flushes [16]: 3.6% | Frequency of Adverse Experiences: Increased Sweating [16]: 11.6* % | Frequency of Adverse Experiences: Insomnia [16]: 11.3% | Frequency of Adverse Experiences: Nausea [16]: 19.4* % | Frequency of Adverse Experiences: Nervousness [16]: 2.8% | Frequency of Adverse Experiences: Palpitations [16]: 4.6% | Frequency of Adverse Experiences: Somnolence [16]: 3.5% | Frequency of Adverse Experiences: Tremor [16]: 6.7* % | Frequency of Adverse Experiences: Vertigo [16]: 4.5% | Frequency of Adverse Experiences: Vomiting [16]: 7.9* % | Affinity for muscarinic receptors [4]: no affinity | Affinity for beta adrenergic receptors [5]: no affinity | Affinity for alpha adrenergic receptors [6]: no affinity | Adverse events: headache ([7]; 100 mg/day twice daily): 9% | Adverse events: abdominal pain ([7]; 200 mg/day twice daily): 7% | Adverse events: headache ([7]; 200 mg/day twice daily): 8% | Adverse events: nausea and vomiting ([7]; 200 mg/day twice daily): 7% | Parent drug eliminated unchanged via the kidneys ([8]; humans): 90% | half-life ([8]; humans): approximately 8 hours | Time within which oral doses are absorbed and distributed in the body ([8]; oral doses): 1 to 2 h | Metabolites as share of the concentration of the parent drug ([8]; ten metabolites formed in the liver): about 10% | Affinity for dopaminergic receptors [9]: no affinity | Patients reporting transient nausea [10]: five of them reported transient nausea | Effect on number of beta adrenoceptors in rat cortex [11]: does not affect | Global pain score, mean value ([12]; 1-7 scale (1 very much improved, 4 unchanged, 7 very much worse), FMS patients who reached endpoint, placebo 4.3, p=0.0001): 2.3 | Participants who failed the dose escalation ([12]; BID-IR group): 6% | Participants who failed the dose escalation ([12]; QD-IR group): 19%

COc1ccc(C(CN(C)C)C2(O)CCCCC2)cc1 (stereo not shown) [venlafaxine]
Patients who discontinued treatment that did so due to nausea [13]: ~32% | Adverse experience incidence: anorexia [14]: 11% | Adverse experience incidence: anxiety [14]: 6% | Adverse experience incidence: constipation [14]: 15% | Adverse experience incidence: dizziness [14]: 19% | Adverse experience incidence: dry mouth [14]: 22% | Adverse experience incidence: insomnia [14]: 18% | Adverse experience incidence: nausea [14]: 37% | Adverse experience incidence: nervousness [14]: 13% | Adverse experience incidence: somnolence [14]: 23% | Adverse experience incidence: tremor [14]: 5% | Adverse experience incidence: vomiting [14]: 6%
